Source: publication PMC7961996, “Small Immunomodulatory Molecules as Potential Therapeutics in Experimental Murine Models of Acute Lung Injury (ALI)/Acute Respiratory Distress Syndrome (ARDS)” (International Journal of Molecular Sciences, 2021)

How the values were obtained:
LPS-induced ALI mice = assay: LPS-induced ALI murine model; assay type: in vivo, C57BL6/J mice
Experimental: (§1) For the mouse efficacy studies, both AVR-25 and AVR-48 were reconstituted in 0.9% sterile normal saline to give a final concentration of 10 mg/kg; 125 µL was administered intraperitoneally (IP) for hyperoxia- and LPS- induced lung injury, and IV via the lateral tail vein for CLP-induced lung injury. Imipenem (Primaxin®) was formulated in sterile 0.9% saline solution and administered subcutaneously (SC) at a dose of 5 mg/kg to mice in a 0.2 mL volume near the dorsal scapular region for CLP-induced lung injury study. LPS was dissolved in sterile 0.9% saline solution and 100 µL was administered intratracheally for the ALI study.
(§2) Three models of ALI were used in the current study: hyperoxia-, LPS-, and CLP-induced lung injury: LPS-induced ALI was induced by administering a one-time intratracheal instillation of LPS (100 µg in a volume of 100 µL). Animals were sacrificed after 24 h following LPS administration while two doses of AVR-25 and AVR-48 were administered (10 mg/kg, IP) at 4 h and 12 h following LPS dosing. Hyperoxia-induced ALI was initiated by keeping the mice in cages in airtight polypropylene chamber exposed to hyperoxia (100% oxygen) for 48 h, following a standard protocol. Two doses of AVR-25 and AVR-48 were administered (10 mg/kg, IP) at 4 h and 12 h following hyperoxia exposure, and mice were sacrificed after 48 h.
(§3) At the end of the experimental time points for all the above groups, the mice were euthanized with an overdose of a cocktail of xylazine (100 mg/kg)/ketamine (10 mg/kg, IP) and BALF and lung tissues were harvested for further analysis. Male mice were used for all the ALI experiments.
(§4) BALF was obtained from the anesthetized mice by cannulating the upper part of the trachea with a blunt 22-gauge needle and then by lavaging three times with 1.0 mL of cold PBS (pH 7.4). The fluid recovery rate was about 90%. Lavaged samples were kept on ice, and the BALF was centrifuged at 4 °C. Total cell counts in BALF were determined using the TC20 automated cell counter (Bio-Rad Laboratories, Inc., Hercules, CA, USA). The differential cell counts were performed on cytospin preparations after staining with the Hema 3 differential Staining kit (Fisher Scientific, Kalamazoo, MI, USA). Total protein concentration in the BALF was measured using the Pierce^TM BCA assay kit (Fisher Scientific Co, Houston, TX, USA), as previously described.
(§5) Lung endothelium permeability was determined by measuring the accumulation of Evans blue in the lungs, as previously described. In brief, Evans blue dye (EBD) solution (Sigma-Aldrich, Inc., St. Louis, MO, USA, 5 mg/mL) was injected into the tail vein at a concentration of 50 mg/kg before 30 min of the experimental time point. At the experimental time points, lungs were excised and weighed. EBD was extracted in 2 mL formamide kept in a water bath at 60 °C for 3 h, and the samples were centrifuged at 500 g for 10 min. The absorption of light at 595 nm was measured spectrophotometrically (Microplate reader, Bio-Rad Laboratories, Hercules, CA, USA) with the supernatants.
(§6) Interleukin (IL)-6, IL-1β, and IL-10 were quantified on BALF while E-selectin was quantified in lung homogenate using commercially available DuoSet® ELISA kits (R&D Systems, Minneapolis, MN, USA) according to the manufacturer’s instructions, as previously described. Briefly, Nalgene Nunc Maxisorp™ plates were coated overnight with antibodies to IL-6 (2 µg/mL), IL-1β (2 µg/mL) IL-10 (2 µg/mL), or E-selectin (2 µg/mL) and the following morning plates were washed and blocked for 2 h. Samples were added to the wells at various dilutions and then incubated with detection antibody for 2 h. Plates were subsequently washed, and streptavidin-HRP conjugate antibody was added to each well for 20 min. […]

[1] = tested on: hyperoxia-induced ALI mice; assay: Hyperoxia-induced ALI murine model; assay type: in vivo, C57BL6/J mice
Experimental: as §1, §2, §3, §4, §5, §6

[2] = 10 mg/kg IP at 4 h and 12 h after LPS, 24 h, vs untreated ALI mice
[3] = 10 mg/kg IP x2, ELISA, vs non-treated ALI mice
[4] = 10 mg/kg IP at 4 h and 12 h of hyperoxia (100% oxygen), 48 h

## CC(=O)N[C@H]1[C@H](Oc2ccc([N+](=O)[O-])cc2)O[C@H](CO)[C@@H](O)[C@@H]1O [AVR-48, N-((2S,3R,4R,5S,6R)-4,5-dihydroxy-6-(hydroxymethyl)-2-(4-nitrophenoxy)tetrahydro-2H-pyran-3-yl) acetamide]
LPS-induced ALI mice; 10 mg/kg IP at 4 h and 12 h after LPS, 24 h, ELISA, Western blot
  pro-inflammatory cytokines IL-1β and IL-6 levels in BALF and lung tissues: decreased
LPS-induced ALI mice; [2]
  neutrophil cell counts in BALF: decreased counts
  total inflammatory cell counts in BALF: decreased counts
LPS-induced ALI mice; 10 mg/kg IP x2
  Evans Blue dye leak concentration in the lungs: diminished levels
  expression of lung adhesion molecules ICAM-1, VCAM-1, and E-selectin in whole lung tissue: decreased expression
  total proteins in BALF (pulmonary edema): diminished levels
LPS-induced ALI mice; 10 mg/kg IP x2, 0-4 scoring, vs ALI mice without treatment
  lung injury score (H&E): decreased lung injury scores
LPS-induced ALI mice; [3]
  IL-10 levels in BALF: further increase
LPS-induced ALI mice; 10 mg/kg IP x2, Western blot
  expression of cleaved caspase-3 in lungs (lung cell death): reduced expression
  expression of endothelial AJ proteins VE-cadherin and β-catenin in whole lungs: increased expression
[1]; [4]
  neutrophils infiltration into the lung (BALF): diminished
  total immune cells infiltration into the lung (BALF): diminished
[1]; 10 mg/kg IP x2
  Evans Blue dye leak concentration in the lungs: diminished levels
  expression of lung adhesion molecules ICAM-1, VCAM-1, and E-selectin in whole lung tissue: decreased expression
  total proteins in BALF (pulmonary edema): diminished levels
[1]; 10 mg/kg IP x2, 48 h, vs untreated ALI mice
  levels of pro-inflammatory cytokines (IL-1β, IL-6) in BALF and lung tissues: decreased levels
[1]; 10 mg/kg IP x2, 0-4 scoring
  lung injury (H&E, injury score): improved lung injury
[1]; [3]
  IL-10 levels in BALF: further increase
[1]; 10 mg/kg IP x2, Western blot
  expression of cleaved caspase-3 in lungs (lung cell death): reduced expression
  expression of endothelial AJ proteins VE-cadherin and β-catenin in whole lungs: increased expression
  expression of phosphorylated-Src in whole lungs: decreased expression
